Four molecules from ChEMBL document CHEMBL1201862, “PubChem BioAssay data set” (2004) can be followed below.

The structures appear in SMILES notation. Active and inactive are the calls of the source.

The target in assay [1] is T1, Apoptotic protease-activating factor 1 (Homo sapiens, UniProt O14727).
T1 sequence (O14727 whole entry): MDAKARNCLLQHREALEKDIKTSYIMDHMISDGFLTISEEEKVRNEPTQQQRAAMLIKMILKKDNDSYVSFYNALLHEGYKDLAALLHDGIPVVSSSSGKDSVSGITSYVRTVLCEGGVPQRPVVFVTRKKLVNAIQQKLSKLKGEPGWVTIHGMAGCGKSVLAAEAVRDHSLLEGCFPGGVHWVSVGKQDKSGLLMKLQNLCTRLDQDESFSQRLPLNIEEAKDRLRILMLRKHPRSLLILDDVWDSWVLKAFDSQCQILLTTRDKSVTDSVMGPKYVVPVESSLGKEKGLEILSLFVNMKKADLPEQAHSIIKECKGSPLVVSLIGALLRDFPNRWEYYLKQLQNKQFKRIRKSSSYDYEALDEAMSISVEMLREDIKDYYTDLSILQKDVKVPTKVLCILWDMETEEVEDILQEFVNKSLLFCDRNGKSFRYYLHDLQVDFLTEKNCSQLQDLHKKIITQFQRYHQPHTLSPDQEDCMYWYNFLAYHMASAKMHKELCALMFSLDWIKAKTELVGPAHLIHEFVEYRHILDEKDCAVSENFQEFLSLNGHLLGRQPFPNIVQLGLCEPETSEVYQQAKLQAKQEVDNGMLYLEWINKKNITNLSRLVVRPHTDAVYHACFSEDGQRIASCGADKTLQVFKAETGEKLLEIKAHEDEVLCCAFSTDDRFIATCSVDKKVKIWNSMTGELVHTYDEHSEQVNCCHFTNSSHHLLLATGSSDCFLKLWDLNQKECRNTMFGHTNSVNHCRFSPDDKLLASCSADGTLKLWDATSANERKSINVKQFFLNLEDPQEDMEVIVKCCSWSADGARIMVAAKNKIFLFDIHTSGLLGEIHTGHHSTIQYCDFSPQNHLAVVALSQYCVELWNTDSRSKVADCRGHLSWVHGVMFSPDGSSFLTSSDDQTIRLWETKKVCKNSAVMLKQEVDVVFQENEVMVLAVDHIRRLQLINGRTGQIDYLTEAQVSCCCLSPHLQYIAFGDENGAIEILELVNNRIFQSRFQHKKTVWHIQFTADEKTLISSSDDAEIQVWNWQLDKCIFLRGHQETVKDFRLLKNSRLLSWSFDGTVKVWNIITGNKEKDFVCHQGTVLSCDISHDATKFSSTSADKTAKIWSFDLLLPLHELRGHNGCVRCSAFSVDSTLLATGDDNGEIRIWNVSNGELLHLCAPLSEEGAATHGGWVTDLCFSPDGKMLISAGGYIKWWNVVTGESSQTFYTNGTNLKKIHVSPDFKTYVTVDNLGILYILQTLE
Type of assay: functional.

The next assay addresses T2, Protein RecA (Mycobacterium tuberculosis, UniProt P9WHJ3).
T2 sequence (P9WHJ3 whole entry): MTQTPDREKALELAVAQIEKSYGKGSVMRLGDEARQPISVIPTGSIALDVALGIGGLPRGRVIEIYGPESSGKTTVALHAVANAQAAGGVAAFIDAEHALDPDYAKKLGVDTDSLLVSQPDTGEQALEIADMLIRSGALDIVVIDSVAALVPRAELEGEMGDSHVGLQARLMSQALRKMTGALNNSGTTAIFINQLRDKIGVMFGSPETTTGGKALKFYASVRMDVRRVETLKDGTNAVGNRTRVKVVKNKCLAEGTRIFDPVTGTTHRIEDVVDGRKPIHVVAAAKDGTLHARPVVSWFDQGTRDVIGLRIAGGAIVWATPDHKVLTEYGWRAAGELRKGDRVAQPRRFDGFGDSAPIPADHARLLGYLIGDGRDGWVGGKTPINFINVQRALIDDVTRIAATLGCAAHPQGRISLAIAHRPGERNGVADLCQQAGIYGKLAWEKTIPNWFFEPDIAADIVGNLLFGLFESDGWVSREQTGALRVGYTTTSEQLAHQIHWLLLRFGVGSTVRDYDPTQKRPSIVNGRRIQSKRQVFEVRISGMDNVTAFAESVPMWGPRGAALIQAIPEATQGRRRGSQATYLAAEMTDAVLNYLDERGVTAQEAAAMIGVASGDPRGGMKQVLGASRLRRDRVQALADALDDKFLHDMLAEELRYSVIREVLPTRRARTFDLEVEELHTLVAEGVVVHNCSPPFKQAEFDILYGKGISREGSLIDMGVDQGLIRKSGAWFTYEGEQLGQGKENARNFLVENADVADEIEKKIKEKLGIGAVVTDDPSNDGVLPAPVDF
Nature of the assay: Fluorescence Cell-Free Homogeneous Dose Retest to Identify Inhibitors of RecA-Intein Splicing Activity. [Related pubchem assays (depositor defined):AID2097, AID2223, AID489010, AID492950]. Type of assay: functional.

Assay [2] addresses T3, Tyrosyl-DNA phosphodiesterase 2 (Homo sapiens, UniProt O95551).
T3 sequence (O95551 whole entry): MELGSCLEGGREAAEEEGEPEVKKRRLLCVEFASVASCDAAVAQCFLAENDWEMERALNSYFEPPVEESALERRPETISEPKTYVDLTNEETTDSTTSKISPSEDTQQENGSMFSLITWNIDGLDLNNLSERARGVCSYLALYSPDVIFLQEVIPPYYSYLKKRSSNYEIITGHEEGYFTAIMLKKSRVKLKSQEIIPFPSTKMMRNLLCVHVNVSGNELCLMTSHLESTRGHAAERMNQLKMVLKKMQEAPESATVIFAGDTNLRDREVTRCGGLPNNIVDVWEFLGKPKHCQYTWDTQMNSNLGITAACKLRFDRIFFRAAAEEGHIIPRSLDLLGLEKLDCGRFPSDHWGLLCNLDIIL
Nature of the assay: potency against TDP2 phosphodiesterase activity – biochemical, epi absorbance, IC50, dose response (AID 743297).

The IC50 is the midpoint of a concentration-inhibition curve. The EC50 is the midpoint of the concentration-response curve. As to `Cc1ccc(C(=O)NC2(O)C(=O)c3ccccc3C2=O)cc1C`, the IC50 in assay [1] is 5.13 µM (active); in assay [2], 5.74 µM (active). Also, the EC50 on Protein RecA was 15.9 µM (active).
Turning to `O=[N+]([O-])c1c(Nc2ccccn2)cc(Cl)c2nonc12`, the EC50 on Protein RecA is 1.02 µM (active). Also, the IC50 in assay [2] is 99.4 µM (inactive).
In the case of `CC[C@@H](C)[C@H](CNC)NC[C@@H](Cc1cccc2ccccc12)NCCc1cccc(C(F)(F)F)c1`, the IC50 in assay [1] is 44.1 µM (active).
As for `Cc1ccc(S(=O)(=O)/N=C2\C=C(Nc3cccc(C(=O)O)c3)C(=O)c3ccccc32)cc1`, the IC50 is 7.32 µM (active) in assay [1] and 3.18 µM (active) in assay [2]. Besides, the concentration for a half-maximal effect (EC50) at Protein RecA was 0.266 µM (active).
